# In the NIST ThermoML archive (doi:10.1016/j.jct.2013.08.018):
# Several values for one entry are separate records, joined by “and”; a condition that tells them apart may be missing. Equal entries are not always repeated. ± gives the expanded uncertainty stated by the source.
# Assay: osmotic coefficient (dimensionless); mn = molality of the nth substance listed, in mol/kg
# Settings: 298.15 K, 101 kPa, Liquid
# [1] = commercial osmometer Gonotec 070, m1 = 0.5
# [2] = commercial osmometer Gonotec 070, m1 = 1
# [3] = commercial osmometer Knauer K-7000, m1 = 1
# [4] = commercial osmometer Knauer K-7000, m1 = 3
osmotic coefficient [1],osmotic coefficient [2],osmotic coefficient [3],osmotic coefficient [4],SMILES
0.953 and 0.934,0.959 and 0.971,,,[Br-].[Na+] [sodium bromide] + O
0.928 and 0.955,0.987 and 0.978,,,[Cl-].[Li+] [lithium chloride] + O
,,0.643 and 0.64 and 0.641,0.629 and 0.627 and 0.625,N.N.O=S(=O)(O)O [ammonium sulfate] + O
1 and 1.01,1.07 and 1.01,,,[I-].[Li+] [lithium iodide] + O
0.907 and 0.905,0.919 and 0.917,,,[Br-].[K+] [potassium bromide] + O
0.978 and 0.97,1.03 and 1.04,,,[Br-].[Li+] [lithium bromide] + O

# The next lines start with the molecule.
SMILES,osmotic coefficient [1],osmotic coefficient [2],osmotic coefficient [3],osmotic coefficient [4]
[I-].[Na+] [sodium iodide] + O,0.955 and 0.95,0.985 and 1,,
[Cl-].[Na+] [sodium chloride] + O,,,0.927 and 0.925,1.05
O=S(=O)([O-])[O-].[Na+].[Na+] [sodium sulfate] + O,0.717 and 0.69,0.658 and 0.642,,
[I-].[K+] [potassium iodide] + O,0.916 and 0.923,0.934 and 0.927,,
O=[N+]([O-])[O-].[Na+] [sodium nitrate] + O,0.895 and 0.874,0.865 and 0.867,0.854 and 0.859,0.805 and 0.806
O=[N+]([O-])[O-].[K+] [potassium nitrate] + O,,,0.746 and 0.744 and 0.747,0.599 and 0.597 and 0.598
[Cl-].[K+] [potassium chloride] + O,0.905 ± 0.011,0.915 ± 0.01,0.895 and 0.897,0.938 and 0.935 and 0.936
